Patent US4404218A, “Antibiotic SF-2103A substance and process for production thereof” (Meiji Seika Kaisha Ltd., priority 1980, dated 1983)
Where a name gives a salt, the structure may show the parent alone.

Key:
[1] = system: Proteus vulgaris M-8243; test: synergistic effects with β-lactam antibiotics, paper disk inhibition zone
[2] = system: Citrobacter freundii GN 346; test: as above
[3] = system: Proteus rettgeri GN 624; test: as above
[4] = system: Staphylococcus aureus Smith; test: antibacterial activity, agar dilution method; type: cell-based; conditions: Heart Infusion Agar, read-out: Minimum Inhibitory Concentration
[5] = system: Proteus vulgaris GN 76/C-1; test: antibacterial activity, agar dilution method; type: cell-based; conditions: GN76, Heart Infusion Agar, read-out: Minimum Inhibitory Concentration
[6] = system: Citrobacter freundii GN 346; test: antibacterial activity, agar dilution method; type: cell-based; conditions: GN346, Heart Infusion Agar, read-out: Minimum Inhibitory Concentration
[7] = system: Klebsiella pneumoniae PCI 602; test: antibacterial activity, agar dilution method; type: cell-based; conditions: PCI602, Heart Infusion Agar, read-out: Minimum Inhibitory Concentration
[8] = system: Escherichia coli NIHJ JC-2; test: antibacterial activity, agar dilution method; type: cell-based; conditions: NIHJJC2, Heart Infusion Agar, read-out: Minimum Inhibitory Concentration
[9] = toxicity (LD50); conditions: in vivo, mice or rat
Description: […]. LD50 values by oral administration, intramuscular injection and intravenous injection were all higher than 2,000 mg/kg.

[10] = system: Shigella dysenteriae Shigae; test: microbe, parasite or virus in culture; type: cell-based; conditions: read-out: Minimum Inhibitory Concentration
[11] = system: Serratia marcescens No. 1; test: antibacterial activity, agar dilution method; type: cell-based; conditions: Heart Infusion Agar, read-out: Minimum Inhibitory Concentration
[12] = system: Bacillus subtilis ATCC 6633; test: antibacterial activity, agar dilution method; type: cell-based; conditions: ATCC6633, Heart Infusion Agar, read-out: Minimum Inhibitory Concentration
[13] = system: Escherichia coli No. 29; test: antibacterial activity, agar dilution method; type: cell-based; conditions: Heart Infusion Agar, read-out: Minimum Inhibitory Concentration
Description: In this determination, Heart Infusion Agar (produced by Eiken Chemical Co., Ltd.) was used as the medium.

[14] = system: Proteus mirabilis GN 310; test: antibacterial activity, agar dilution method; type: cell-based; conditions: GN310, Heart Infusion Agar, read-out: Minimum Inhibitory Concentration
[15] = system: Proteus morganii Kono; test: antibacterial activity, agar dilution method; type: cell-based; conditions: Morganella morganii, Heart Infusion Agar, read-out: Minimum Inhibitory Concentration
[16] = solubility; type: physicochemical
[17] = system: Pseudomonas aeruginosa E-2; test: antibacterial activity, agar dilution method; type: cell-based; conditions: E2, Heart Infusion Agar, read-out: Minimum Inhibitory Concentration
[18] = system: Staphylococcus aureus 209P; test: antibacterial activity, agar dilution method; type: cell-based; conditions: Heart Infusion Agar, read-out: Minimum Inhibitory Concentration
[19] = system: Escherichia coli GN206; test: mouse protection test, Experiment I; conditions: observed 7 days, groups of five
[20] = stability; type: physicochemical
Description: Furthermore, it is difficult to isolate the SF-2103A substance in a free acid form because it is, as described above, very unstable in an acidic state. The SF-2103A substance is therefore obtained as a salt thereof in a pale yellow or white amorphous powder form by freeze-drying a neutral aqueous solution thereof. The purity of the SF-2103A substance obtained varies depending on the potency of the culture broth.

[21] = biological target: T1, β-lactamase of Citrobacter freundii GN 346 (Citrobacter freundii, UniProt P05193); test: β-lactamase inhibitory activity, modified Sargent's method; type: biochemical; conditions: read-out: 50% Inhibitory Concentration (I50) (converted)
T1 construct: cefalotin substrate
T1 sequence (P05193 21-381): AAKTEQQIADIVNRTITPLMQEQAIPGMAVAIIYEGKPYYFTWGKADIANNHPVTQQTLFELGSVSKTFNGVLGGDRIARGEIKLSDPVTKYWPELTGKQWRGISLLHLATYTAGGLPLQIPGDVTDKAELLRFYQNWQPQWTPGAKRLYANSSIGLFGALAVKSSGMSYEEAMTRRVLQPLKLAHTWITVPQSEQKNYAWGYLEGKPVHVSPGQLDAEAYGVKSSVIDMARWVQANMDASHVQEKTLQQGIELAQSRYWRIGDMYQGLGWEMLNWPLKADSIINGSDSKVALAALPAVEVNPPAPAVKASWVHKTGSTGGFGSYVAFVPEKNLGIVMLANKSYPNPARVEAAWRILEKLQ

[22] = system: Penicillinase; test: as above; type: biochemical; conditions: at 10 ^.parallel.g/ml; substrate Penicilline G Potassium Salt
Description: The Sargent's method was partly modified as follows
Reagent A: Enzyme solution properly diluted with 0.1 M phosphate buffer (pH 7.0) as to show 0.6 optical density of consumption of iodine at 490 nm when measured under the undermentioned conditions.
Reagent B: 1.3% Penicillin G potassium salt aqueous solution for penicillinase assay. 1.3% Cefalotin sodium salt aqueous solution for cephalosporinase assay (β-lactamase of Proteus vulgaris M-8243 or Citrobacter freundii GN 346).
Reagent C: 0.1 M phosphate buffer (pH 7.0)
Reagent D: Iodine acetate buffer solution which is prepared by adding 5 ml of stock iodine solution* to 95 ml of pH 4.0 acetate buffer (80 g of anhydrous sodium acetate adjusted to pH 4.0 with acetic acid and made up to 2 liters with distilled water).
A reaction mixture consisted of 0.5 ml of Reagent B and 2 ml of Reagent C is pre-incubated for 5 min at 30° C., and 0.5 ml of Reagent A is added to it and kept for 30 min at 30° C. At the end of reaction, 5 ml of Reagent D is added with rapid mixing and kept for 10 min at 30° C., then the optical density at 490 nm is measured.
As the blank test, an incubation mixture containing 0.5 ml of Reagent B and 2 ml of Reagent C is kept at 30° C. for 30 min, after that 5 ml of Reagent D and 0.5 ml of Reagent A are added to it. Then the optical density is measured in the same way. […]

[23] = β-lactam alone on 8 mm disk (Ampicillin 10 μg, Carbenicillin 2 μg, Cefalotin 2 μg, Cefaloridine 5 μg), 37° C., 16 hours
[24] = SF-2103A alone, 1 μg per disk, listed as SF-2103A

**Q.** Which results are given for `CC1(C)S[C@@H]2[C@H](NC(=O)[C@H](N)c3ccccc3)C(=O)N2[C@H]1C(=O)O` [Ampicillin]?
**A.** Diameter of Inhibition Zone [1, 23]: 0 mm; Diameter of Inhibition Zone [2, 23]: 0 mm; Diameter of Inhibition Zone [3, 23]: 0 mm

**Q.** For `CC1(C)S[C@@H]2[C@H](NC(=O)C(C(=O)O)c3ccccc3)C(=O)N2[C@H]1C(=O)O` (stereo partly drawn) [Carbenicillin], which “Diameter of Inhibition Zone” value [1, 23] is on record?
**A.** 0 mm

**Q.** And the “Diameter of Inhibition Zone” value [2, 23]?
**A.** 0 mm

**Q.** What about the “Diameter of Inhibition Zone” value [3, 23] of the same molecule?
**A.** 0 mm

**Q.** For `O=C(Cc1cccs1)N[C@@H]1C(=O)N2C(C(=O)[O-])=C(C[n+]3ccccc3)CS[C@H]12` [Cefaloridine], which “Diameter of Inhibition Zone” value [1, 23] is on record?
**A.** 0 mm

**Q.** What about the “Diameter of Inhibition Zone” value [2, 23] of the same molecule?
**A.** 0 mm

**Q.** What about the “Diameter of Inhibition Zone” value [3, 23] of the same molecule?
**A.** 0 mm

**Q.** Which “Diameter of Inhibition Zone” value [1, 23] does the source give for `CC(=O)OCC1=C(C(=O)O)N2C(=O)[C@@H](NC(=O)Cc3cccs3)[C@H]2SC1` [Cefalotin] here?
**A.** 0 mm

**Q.** What about the “Diameter of Inhibition Zone” value [2, 23] of the same molecule?
**A.** 0 mm

**Q.** What about the “Diameter of Inhibition Zone” value [3, 23] of the same molecule?
**A.** 0 mm

**Q.** Which results are given for `CC(OS(=O)(=O)O)C1C(=O)N2C(C(=O)O)=C(S(=O)(=O)O)CC12` (stereo not drawn) [SF-2103A substance sodium salt]?
**A.** MIC [4]: 25 µg/mL; MIC [5]: 25 µg/mL; MIC [6]: 6.25 µg/mL; MIC [7]: 50 µg/mL; MIC [8]: 12.5 µg/mL; LD50 ([9]; im, intramuscular injection): > 2000 mg/kg; LD50 ([9]; intravenous injection): > 2000 mg/kg; LD50 ([9]; oral administration): > 2000 mg/kg; MIC [10]: 3.13 µg/mL; MIC [11]: 50 µg/mL; MIC [12]: 50 µg/mL; MIC [13]: 3.13 µg/mL; MIC [14]: 50 µg/mL; MIC [15]: 25 µg/mL; Solubility ([16]; in benzene): insoluble; Solubility ([16]; in chloroform): insoluble; Solubility ([16]; in ethyl acetate): insoluble; Solubility ([16]; in methanol): soluble; Solubility ([16]; in water): Freely soluble; MIC [17]: > 100 µg/mL; MIC [18]: 25 µg/mL

**Q.** Which “Diameter of Inhibition Zone” value ([1]; SF-2103A alone, 1 μg per disk) does the source give for `CC(OS(=O)(=O)O)C1C(=O)N2C(C(=O)O)=C(S(=O)(=O)O)CC12` (stereo not drawn) [SF-2103A substance] here?
**A.** does not show the inhibition zone

**Q.** And the “Diameter of Inhibition Zone” value [1, 24]?
**A.** 0 mm

**Q.** What about the “survival of infected mice” value ([19]; 1 mg/mouse subcutaneously twice at one and two hours after intraperitoneal infection) of the same molecule?
**A.** four of the five mice survived

**Q.** What about the “survival of infected mice” value ([19]; 2 mg/mouse subcutaneously once at one hour after intraperitoneal infection) of the same molecule?
**A.** two of the five mice survived

**Q.** What about the stability ([20]; acidic state (free acid form)) of the same molecule?
**A.** very unstable

**Q.** What about the stability ([20]; temperatures higher than room temperature, acidic or alkaline state) of the same molecule?
**A.** extremely unstable

**Q.** And the “Diameter of Inhibition Zone” value ([2]; SF-2103A alone, 1 μg per disk)?
**A.** does not show the inhibition zone

**Q.** What about the “Diameter of Inhibition Zone” value [2, 24] of the same molecule?
**A.** 0 mm

**Q.** And the IC50 [21]?
**A.** 504 nM

**Q.** And the “Diameter of Inhibition Zone” value ([3]; SF-2103A alone, 1 μg per disk)?
**A.** does not show the inhibition zone

**Q.** And the “Diameter of Inhibition Zone” value [3, 24]?
**A.** 0 mm

**Q.** And the “Inhibitory Ratio” value [22]?
**A.** 34.4%
